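Test compounds were applied to cells in 96-well plates for 48 hours at 5 doses. GI50: concentration for 50% inhibition of growth. TGI marks complete inhibition of growth.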
Tests used:
Assay in all cases: growth of human tumour cells (NCI), 48 h
A549 NSCLC = tested on: A549 NSCLC
EKVX NSCLC = tested on: EKVX NSCLC
IGROV1 ovarian = tested on: IGROV1 ovarian
HCT-15 colon = tested on: HCT-15 colon
HCT-116 colon = tested on: HCT-116 colon
M14 melanoma = tested on: M14 melanoma
SK-MEL-28 melanoma = tested on: SK-MEL-28 melanoma
OVCAR-4 ovarian = tested on: OVCAR-4 ovarian
COLO 205 colon = tested on: COLO 205 colon
KM12 colon = tested on: KM12 colon
DU-145 prostate = tested on: DU-145 prostate
HOP-92 NSCLC = tested on: HOP-92 NSCLC
HCC-2998 colon = tested on: HCC-2998 colon
NCI-H23 lung = tested on: NCI-H23 lung
T-47D breast = tested on: T-47D breast
SF-539 CNS = tested on: SF-539 CNS
SN12C renal = tested on: SN12C renal
RPMI-8226 leukemia = tested on: RPMI-8226 leukemia
MDA-MB-231 breast = tested on: MDA-MB-231 breast
LOX IMVI melanoma = tested on: LOX IMVI melanoma
UACC-62 melanoma = tested on: UACC-62 melanoma
HL-60(TB) leukemia = tested on: HL-60(TB) leukemia
NCI-H226 lung = tested on: NCI-H226 lung
786-0 renal = tested on: 786-0 renal
SF-295 CNS = tested on: SF-295 CNS
TK-10 renal = tested on: TK-10 renal
RXF 393 renal = tested on: RXF 393 renal
HS 578T breast = tested on: HS 578T breast
HOP-62 NSCLC = tested on: HOP-62 NSCLC

Compound `NCCCNCCCNc1nc2ccccc2c2[nH]c3ccccc3c12` has a GI50 (A549 NSCLC) of 50.9 nM, a TGI (A549 NSCLC) of 4050 nM and a GI50 (EKVX NSCLC) of 2090 nM. The TGI (EKVX NSCLC) was 5800 nM, the GI50 (IGROV1 ovarian) was 83.7 nM and the TGI (IGROV1 ovarian) was 1030 nM. For the same compound, the GI50 (HCT-15 colon) was 307 nM, the TGI (HCT-15 colon) was 4950 nM and the GI50 (HCT-116 colon) was 91 nM. The TGI (HCT-116 colon) was 1870 nM, the GI50 (M14 melanoma) was 672 nM and the TGI (M14 melanoma) was 2350 nM. It also gave a GI50 (SK-MEL-28 melanoma) of 464 nM, a TGI (SK-MEL-28 melanoma) of 2100 nM and a GI50 (OVCAR-4 ovarian) of 198 nM. For the same compound, the TGI (OVCAR-4 ovarian) was 1390 nM, the GI50 (COLO 205 colon) was 182 nM and the TGI (COLO 205 colon) was 2120 nM. For the same compound, the GI50 (KM12 colon) was 684 nM, the TGI (KM12 colon) was 3930 nM and the GI50 (DU-145 prostate) was 75.6 nM. For the same compound, the TGI (DU-145 prostate) was 1510 nM, the GI50 (HOP-92 NSCLC) was 173 nM and the TGI (HOP-92 NSCLC) was 747 nM. The GI50 (HCC-2998 colon) was 109 nM, the TGI (HCC-2998 colon) was 733 nM and the GI50 (NCI-H23 lung) was 93.6 nM. It also gave a TGI (NCI-H23 lung) of 1060 nM, a GI50 (T-47D breast) of 334 nM and a TGI (T-47D breast) of 2690 nM. It also gave a GI50 (SF-539 CNS) of 156 nM, a TGI (SF-539 CNS) of 1550 nM and a GI50 (SN12C renal) of 22.4 nM. It also gave a TGI (SN12C renal) of 1280 nM, a GI50 (RPMI-8226 leukemia) of 343 nM and a TGI (RPMI-8226 leukemia) of 3510 nM. The GI50 (MDA-MB-231 breast) was 142 nM, the TGI (MDA-MB-231 breast) was 1560 nM and the GI50 (LOX IMVI melanoma) was 36.3 nM. It also gave a TGI (LOX IMVI melanoma) of 1120 nM, a GI50 (UACC-62 melanoma) of 327 nM and a TGI (UACC-62 melanoma) of 1730 nM. The GI50 (HL-60(TB) leukemia) was 37.5 nM, the TGI (HL-60(TB) leukemia) was 1300 nM and the GI50 (NCI-H226 lung) was 125 nM. For the same compound, the TGI (NCI-H226 lung) was 1600 nM, the GI50 (786-0 renal) was 97.5 nM and the TGI (786-0 renal) was 1560 nM. It also gave a GI50 (SF-295 CNS) of 66.4 nM, a TGI (SF-295 CNS) of 1610 nM and a GI50 (TK-10 renal) of 1100 nM. For the same compound, the TGI (TK-10 renal) was 3680 nM, the GI50 (RXF 393 renal) was 313 nM and the TGI (RXF 393 renal) was 2130 nM. For the same compound, the GI50 (HS 578T breast) was 132 nM, the TGI (HS 578T breast) was 1540 nM and the GI50 (HOP-62 NSCLC) was 63.2 nM.

From PubChem BioAssay (NCI)
